Source: PMC9246714, “Characterization of inositol lipid metabolism in gut-associated Bacteroidetes” (Nature Microbiology, 2022)

Experiments:
BT_1526 MIPS = molecular target: T1, BT_1526 MIPS (Bacteroides thetaiotaomicron, UniProt Q8A7J8); assay: X-ray crystal structure, […] Å; settings: cofactor binding site; crystals grown at pH 6.5, 20 °C
T1 construct: full-length wild-type ORF (synthetic gene), pET-28a, N-terminal His6 tag, E. coli BL21(DE3); HisTrap and Superdex S200; tetramer in crystal
T1 sequence (Q8A7J8 1-429): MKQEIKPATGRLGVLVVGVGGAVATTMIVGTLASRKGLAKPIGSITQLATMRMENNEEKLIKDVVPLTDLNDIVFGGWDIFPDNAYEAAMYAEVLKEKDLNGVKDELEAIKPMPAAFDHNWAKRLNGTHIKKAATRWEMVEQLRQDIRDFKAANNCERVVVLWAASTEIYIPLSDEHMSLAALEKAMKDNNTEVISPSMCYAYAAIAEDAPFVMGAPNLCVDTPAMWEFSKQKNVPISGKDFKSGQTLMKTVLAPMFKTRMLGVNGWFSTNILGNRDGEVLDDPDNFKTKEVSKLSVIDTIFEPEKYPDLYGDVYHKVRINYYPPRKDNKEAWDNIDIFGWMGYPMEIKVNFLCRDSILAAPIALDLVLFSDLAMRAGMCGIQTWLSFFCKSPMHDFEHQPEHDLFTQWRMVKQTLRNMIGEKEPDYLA

[1] = molecular target: the molecule itself; assay: crystal structure; sitting drop vapour diffusion, 20 °C; 200 mM sodium formate, 100 mM bis tris propane pH 6.5, 20% (w/v) PEG 3350; protein at 11.4 mg/ml; MIPS:NAD complex

Row | Molecule | X-ray crystal structure, 2.0 Å (BT_1526 MIPS) | stoichiometry N [1]
1 | NC(=O)c1ccc[n+]([C@@H]2O[C@H](COP(=O)(O)OP(=O)(O)OC[C@H]3O[C@@H](n4cnc5c(N)ncnc54)[C@H](O)[C@@H]3O)[C@@H](O)[C@H]2O)c1 [NAD, NAD+] | the structure of the MIPS:NAD complex in the cofactor binding site | –
2 | BT_1526 myo-inositol phosphate synthase (MIPS) of Bacteroides thetaiotaomicron (enzyme, UniProt Q8A7J8 1-429, looked up, myo-inositol phosphate synthase BT_1526 of Bacteroides thetaiotaomicron VPI-5482; synthetic gene encoding the BT_1526 open reading frame (wild type) in pET-28a; No cleavage of the His tag is described; also called BT_1526 MIPS; BT MIP synthase; source: E. coli BL21 (DE3), purified (HisTrap, Superdex S200 size-exclusion chromatography)) MKQEIKPATGRLGVLVVGVGGAVATTMIVGTLASRKGLAKPIGSITQLATMRMENNEEKLIKDVVPLTDLNDIVFGGWDIFPDNAYEAAMYAEVLKEKDLNGVKDELEAIKPMPAAFDHNWAKRLNGTHIKKAATRWEMVEQLRQDIRDFKAANNCERVVVLWAASTEIYIPLSDEHMSLAALEKAMKDNNTEVISPSMCYAYAAIAEDAPFVMGAPNLCVDTPAMWEFSKQKNVPISGKDFKSGQTLMKTVLAPMFKTRMLGVNGWFSTNILGNRDGEVLDDPDNFKTKEVSKLSVIDTIFEPEKYPDLYGDVYHKVRINYYPPRKDNKEAWDNIDIFGWMGYPMEIKVNFLCRDSILAAPIALDLVLFSDLAMRAGMCGIQTWLSFFCKSPMHDFEHQPEHDLFTQWRMVKQTLRNMIGEKEPDYLA | – | 4
